“And” between values parts separate entries of the source, which are not always exact repeats. Identical values can stand only once. Inconclusive results and toxic doses are left out.
Tested on: BDF1 mice, B16 melanoma ip, median survival T/C
Assay: NCI In Vivo Anticancer Drug Screen. Data for tumor model B16 Melanoma (intraperitoneal) in B6D2F1 (BDF1) mice
Conditions: endpoint: median survival time, higher = longer survival
How it was run: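 The ratio T/C compares compound-treated mice with vehicle-treated controls, using survival or tumor size as the endpoint in a transplantable tumor model.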

[1] = dose: 25.0 mg/kg/injection, schedule: Q01DX009 (ip), vehicle: saline
[2] = dose: 50.0 mg/kg/injection, schedule: Q01DX009 (ip), vehicle: saline
[3] = dose: 100.0 mg/kg/injection, schedule: Q01DX009 (ip), vehicle: saline
[4] = dose: 50.0 mg/kg/injection, schedule: Q04DX003 (ip), vehicle: Klucel (hydroxypropylcellulose) (HPC)
[5] = dose: 100.0 mg/kg/injection, schedule: Q01DX009 (ip), vehicle: Klucel (hydroxypropylcellulose) (HPC)
[6] = dose: 75.0 mg/kg/injection, schedule: Q01DX009 (ip), vehicle: Klucel (hydroxypropylcellulose) (HPC)
[7] = dose: 150.0 mg/kg/injection, schedule: Q01DX009 (ip), vehicle: Klucel (hydroxypropylcellulose) (HPC)
[8] = dose: 300.0 mg/kg/injection, schedule: Q01DX009 (ip), vehicle: Klucel (hydroxypropylcellulose) (HPC)
[9] = dose: 12.5 mg/kg/injection, schedule: Q01DX009 (ip), vehicle: saline with Tween-80
[10] = dose: 25.0 mg/kg/injection, schedule: Q01DX009 (ip), vehicle: saline with Tween-80
[11] = dose: 50.0 mg/kg/injection, schedule: Q01DX009 (ip), vehicle: saline with Tween-80
[12] = dose: 100.0 mg/kg/injection, schedule: Q01DX009 (ip), vehicle: saline with Tween-80
[13] = dose: 200.0 mg/kg/injection, schedule: Q01DX009 (ip), vehicle: saline
[14] = dose: 200.0 mg/kg/injection, schedule: Q01DX009 (ip), vehicle: Klucel (hydroxypropylcellulose) (HPC)
[15] = dose: 400.0 mg/kg/injection, schedule: Q01DX009 (ip), vehicle: Klucel (hydroxypropylcellulose) (HPC)
[16] = dose: 50.0 mg/kg/injection, schedule: Q01DX009 (ip), vehicle: Klucel (hydroxypropylcellulose) (HPC)
[17] = dose: 100.0 mg/kg/injection, schedule: Q04DX003 (ip), vehicle: Klucel (hydroxypropylcellulose) (HPC)
[18] = dose: 200.0 mg/kg/injection, schedule: Q04DX003 (ip), vehicle: Klucel (hydroxypropylcellulose) (HPC)
[19] = dose: 12.5 mg/kg/injection, schedule: Q01DX009 (ip), vehicle: saline
[20] = dose: 6.25 mg/kg/injection, schedule: Q01DX009 (ip), vehicle: saline with Tween-80
[21] = dose: 1.56 mg/kg/injection, schedule: Q01DX009 (ip), vehicle: Klucel (hydroxypropylcellulose) (HPC)
[22] = dose: 3.12 mg/kg/injection, schedule: Q01DX009 (ip), vehicle: Klucel (hydroxypropylcellulose) (HPC)
[23] = dose: 6.25 mg/kg/injection, schedule: Q01DX009 (ip), vehicle: Klucel (hydroxypropylcellulose) (HPC)
[24] = dose: 12.5 mg/kg/injection, schedule: Q01DX009 (ip), vehicle: Klucel (hydroxypropylcellulose) (HPC)
[25] = dose: 25.0 mg/kg/injection, schedule: Q01DX009 (ip), vehicle: Klucel (hydroxypropylcellulose) (HPC)

COC1=C2CC(C)CC(OC)C(O)C(C)/C=C(\C)C(OC(N)=O)C(OC)/C=C\C=C(/C)C(=O)NC(=C(/C=N/N(C)C)C1=O)C2=O (configuration not stated)
T/C (dose: 12.5 mg/kg/injection, schedule: Q01DX005 (ip), vehicle: other): 101 % of control
T/C (dose: 25.0 mg/kg/injection, schedule: Q01DX005 (ip), vehicle: other): 101 % of control
T/C (dose: 50.0 mg/kg/injection, schedule: Q01DX005 (ip), vehicle: other): 101 % of control
T/C (dose: 100.0 mg/kg/injection, schedule: Q01DX005 (ip), vehicle: other): 97 % of control
T/C (dose: 200.0 mg/kg/injection, schedule: Q01DX005 (ip), vehicle: other): 96 % of control

CN(C)CCCC#N
T/C [1]: 100 % of control
T/C [2]: 100 % of control
T/C [3]: 100 % of control

CC(=O)OCC(OC(C)=O)C(OC(C)=O)C(C#N)OC(C)=O (configuration not stated)
T/C (dose: 12.5 mg/kg/injection, schedule: Q04DX003 (ip), vehicle: Klucel (hydroxypropylcellulose) (HPC)): 100 % of control
T/C (dose: 25.0 mg/kg/injection, schedule: Q04DX003 (ip), vehicle: Klucel (hydroxypropylcellulose) (HPC)): 95 % of control
T/C [4]: 97 % of control

Cc1cc(NC(=O)NCc2ccc(N3C(N)=NC(N)=NC3(C)C)cc2)ccc1S(=O)(=O)F
T/C (dose: 25.0 mg/kg/injection, schedule: Q04DX003 (ip), vehicle: saline): 97 % of control
T/C (dose: 50.0 mg/kg/injection, schedule: Q04DX003 (ip), vehicle: saline): 109 % of control
T/C (dose: 400.0 mg/kg/injection, schedule: Q04DX003 (ip), vehicle: saline): 122 % of control

CCCCCCC(=O)C(CCCC)(C(=O)OCC)C(=O)OCC
T/C [5]: 89 % of control

COCC(=O)CC(C)=O
T/C [6]: 122 % of control
T/C [7]: 113 % of control
T/C [8]: 105 % of control

CCO/C=C1\SC(=S)N(c2ccc(C(=O)O)cc2)C1=O
T/C [9]: 107 % of control
T/C [10]: 115 % of control
T/C [11]: 110 % of control

Oc1cc2ccccc2c(-c2c(O)c(O)cc3ccccc23)c1O
T/C [9]: 114 % of control
T/C [10]: 117 % of control
T/C [11]: 117 % of control
T/C [12]: 110 % of control

CCOC(=O)c1ccc(NS(C)(=O)=O)cc1
T/C [6]: 94 % of control
T/C [7]: 102 % of control
T/C [8]: 108 % of control

Nc1nc(N)n2c(N)nnc2n1
T/C [3]: 87 % of control
T/C [13]: 88 % of control

CCC(=O)c1cc([N+](=O)[O-])ccc1NC(C)=O
T/C [5]: 101 % of control
T/C [14]: 107 % of control
T/C [15]: 109 % of control

COc1c(NC(=O)CC(C)=O)cccc1NC(=O)CC(C)=O
T/C [16]: 120 % of control
T/C [5]: 104 % of control
T/C [14]: 97 % of control

Cc1ccc(-c2cc(-c3ccccc3)no2)cc1
T/C [17]: 94 % of control
T/C [18]: 100 % of control
T/C (dose: 400.0 mg/kg/injection, schedule: Q04DX003 (ip), vehicle: Klucel (hydroxypropylcellulose) (HPC)): 94 % of control

COc1c2c(cc3c1C(Cl)N(C)CC3)OCO2 (configuration not stated)
T/C [19]: 96 % of control
T/C [1]: 110 % of control
T/C [2]: 106 % of control

NNc1n[nH]c(=S)n1N
T/C (dose: 0.78 mg/kg/injection, schedule: Q01DX009 (ip), vehicle: saline with Tween-80): 88 % of control
T/C (dose: 1.56 mg/kg/injection, schedule: Q01DX009 (ip), vehicle: saline with Tween-80): 93 % of control
T/C (dose: 3.13 mg/kg/injection, schedule: Q01DX009 (ip), vehicle: saline with Tween-80): 90 % of control
T/C [20]: 86 % of control

COc1cccc(NC(=O)CCC(=O)O)c1
T/C [21]: 89 % of control
T/C [22]: 102 % of control
T/C [23]: 92 % of control
T/C [24]: 94 % of control

CNC(=O)Nc1ccc(Cl)cc1C
T/C [25]: 95 % of control
T/C [16]: 97 % of control
T/C [5]: 92 % of control and 121 % of control

CC(C)Oc1ccc2c(c1)N(CCC1CCCCN1)c1ccccc1S2 (configuration not stated)
T/C [21]: 97 % of control
T/C [22]: 98 % of control
T/C [23]: 112 % of control
T/C [24]: 91 % of control
T/C [25]: 86 % of control

NC(=O)c1ncn(C2OC(CO)C(O)C2O)n1 (configuration not stated)
T/C (dose: 20.0 mg/kg/injection, schedule: Q01DX009 (ip), vehicle: saline): 90 % of control
T/C (dose: 40.0 mg/kg/injection, schedule: Q01DX009 (ip), vehicle: saline): 102 % of control
T/C [4]: 102 % of control
T/C (dose: 80.0 mg/kg/injection, schedule: Q01DX009 (ip), vehicle: saline): 97 % of control
T/C [17]: 95 % of control
T/C (dose: 160.0 mg/kg/injection, schedule: Q01DX009 (ip), vehicle: saline): 108 % of control
T/C [18]: 98 % of control

[Cl][Hg][CH]1CCC2OC1CC[CH]2[Hg][Cl] (configuration not stated)
T/C [20]: 104 % of control

Cc1ccc(S(=O)(=O)c2ccc(Sc3cccc[n+]3[O-])c3nonc23)cc1
T/C (dose: 80.0 mg/kg/injection, schedule: Q04DX002 (ip), vehicle: saline with Tween-80): 97 % of control
T/C (dose: 160.0 mg/kg/injection, schedule: Q04DX002 (ip), vehicle: saline with Tween-80): 102 % of control
T/C (dose: 320.0 mg/kg/injection, schedule: Q04DX002 (ip), vehicle: saline with Tween-80): 100 % of control

COC(=O)CC(N)C(=O)O (configuration not stated)
T/C [19]: 101 % of control
T/C [1]: 103 % of control
T/C [2]: 113 % of control
T/C [3]: 104 % of control
T/C [13]: 89 % of control

Cc1nc2c(=O)n(C)c(=O)n(C)c2n1C
T/C (dose: 50.0 mg/kg/injection, schedule: Q04DX003 (ip), vehicle: saline with Tween-80): 105 % of control
T/C (dose: 100.0 mg/kg/injection, schedule: Q04DX003 (ip), vehicle: saline with Tween-80): 105 % of control
T/C (dose: 200.0 mg/kg/injection, schedule: Q04DX003 (ip), vehicle: saline with Tween-80): 105 % of control

O=C1c2c(O)cccc2-c2nn(CCNCCO)c3ccc(NCCNCCO)c1c23
T/C (dose: 2.75 mg/kg/injection, schedule: Q01DX009 (ip), vehicle: water): 306 % of control
T/C (dose: 5.5 mg/kg/injection, schedule: Q01DX009 (ip), vehicle: water): 306 % of control

CCC(=O)c1ccccc1N
T/C [5]: 97 % of control
T/C [14]: 98 % of control

C[CH2][Ge]([CH2]C)[CH2]C.C[CH2][Ge]([CH2]C)[CH2]C.C[CH2][Ge]([CH2]C)[O][Ge]([CH2]C)[CH2]C
T/C [20]: 101 % of control
T/C [9]: 100 % of control
T/C [10]: 101 % of control
T/C [11]: 91 % of control
T/C [12]: 100 % of control

C[CH2][Pb]([CH2]C)([CH2]C)[N]1C(=O)c2ccccc2C1=O
T/C [21]: 112 % of control
T/C [22]: 109 % of control

O=S(=O)(O)c1ccc(Nc2ccccc2)cc1
T/C [5]: 107 % of control and 97 % of control
T/C [14]: 114 % of control and 88 % of control
T/C [15]: 107 % of control and 100 % of control

CC12COC(=O)CC1CCC1C2CCC2(C)C1CCC2(C)O (configuration not stated)
T/C [11]: 94 % of control
T/C [12]: 94 % of control
T/C (dose: 200.0 mg/kg/injection, schedule: Q01DX009 (ip), vehicle: saline with Tween-80): 88 % of control

CC[C@@]1(O)C(=O)OCc2c1cc1n(c2=O)Cc2cc3ccccc3nc2-1
T/C (dose: 0.39 mg/kg/injection, schedule: Q01DX009 (ip), vehicle: other): 151 % of control
T/C (dose: 0.79 mg/kg/injection, schedule: Q01DX009 (ip), vehicle: other): 189 % of control

C[Si]1(C)CCCSC1
T/C [9]: 98 % of control
T/C [10]: 98 % of control
T/C [11]: 91 % of control

CC(C)(C)C(=O)C1C(=O)c2ccccc2C1=O
T/C (dose: 0.06 mg/kg/injection, schedule: Q01DX009 (ip), vehicle: Klucel (hydroxypropylcellulose) (HPC)): 94 % of control
T/C (dose: 0.12 mg/kg/injection, schedule: Q01DX009 (ip), vehicle: Klucel (hydroxypropylcellulose) (HPC)): 97 % of control
T/C (dose: 0.25 mg/kg/injection, schedule: Q01DX009 (ip), vehicle: Klucel (hydroxypropylcellulose) (HPC)): 100 % of control and 108 % of control

From PubChem BioAssay AID192 (DTP/NCI, 2004)
